Reference: article PMC9569447 (International Journal of Molecular Sciences, 2022)
Values joined by “and” are separate entries in the source; they are usually repeats but may differ in a detail not shown here. Equal entries are not always repeated. “Also recorded” adds a separate entry of the source. Numbered stars: 1 amine (or outer) side, 2 acyl side, 3 side chain; on linkers, the order of the positions; unused ones are H or OH. Bridge positions count the residues as written; N and C are the ends. Square brackets hold non-standard residues; d marks the D form. Side chains are listed from the residue outwards. Peptide text beside a SMILES is read from it. * marks the point of attachment. PEG8 = NCCOCCOCCOCCOCCOCCOCCOCCOCCC(=O)O; Palmitoyl = CCCCCCCCCCCCCCCC(=O)*; hCys = N[C@@H](CCS)C(=O)O; X1 = O=C(CC[*:2])[*:1]

What was measured:
[1] = biological target: T1, human V1a receptor (Homo sapiens, UniProt P37288); assay: In vitro functional assay at V1aR (cytosolic Ca2+ mobilization, fluorimetric); type: cell-based; details: agonist activity, result in words
T1 construct: expressed in transfected cells; host or cells: CHO
T1 sequence (P37288 whole entry): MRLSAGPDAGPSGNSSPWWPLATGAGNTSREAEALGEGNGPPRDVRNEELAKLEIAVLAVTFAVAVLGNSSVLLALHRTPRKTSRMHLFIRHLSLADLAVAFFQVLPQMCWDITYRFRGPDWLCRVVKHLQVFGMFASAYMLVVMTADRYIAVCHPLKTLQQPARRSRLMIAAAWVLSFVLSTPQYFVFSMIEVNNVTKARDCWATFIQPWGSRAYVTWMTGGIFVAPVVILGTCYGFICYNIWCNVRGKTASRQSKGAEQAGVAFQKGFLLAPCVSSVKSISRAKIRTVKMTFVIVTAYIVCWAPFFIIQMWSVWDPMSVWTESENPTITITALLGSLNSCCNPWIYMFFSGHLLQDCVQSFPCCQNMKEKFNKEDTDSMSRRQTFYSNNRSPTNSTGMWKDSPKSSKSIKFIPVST
Method: The cells were suspended in DMEM buffer (Invitrogen, Carlsbad, CA, USA) complemented with 0.1% FCS, then distributed in microplates at a density of 4.5 × 10^4 cells/well. The fluorescent probe (Fluo4 Direct, Invitrogen, Carlsbad, CA, USA) mixed with probenicid in HBSS buffer (Invitrogen, Carlsbad, CA, USA) complemented with 20 mM HEPES (Invitrogen; Carlsbad, CA, USA) (pH 7.4) was then added into each well and equilibrated with the cells for 60 min at 37 °C then 15 min at 22 °C. The assay plates were positioned in a microplate reader (CellLux, PerkinElmer, Waltham, MA, USA) followed by the addition of the test compound ASK2131, reference agonist or HBSS buffer (basal control), and the measurements of changes in fluorescence intensity which varies proportionally to the free cytosolic Ca^2+ ion concentration. For stimulated control measurements, AVP at 1 μM was added in separate assay wells. The results were expressed as a percent of the control response to 1 μM AVP. The standard reference agonist was AVP, which was tested in each experiment at several concentrations to generate a concentration-response curve from which its EC50 value was calculated.

[2] = Pharmacokinetics after subcutaneous administration to rats; details: sc, 300 nmol/kg
Method: (§1) Whole blood samples were immediately centrifuged at 4 °C; separated plasma (~100 uL) was pipetted into micro centrifuge tubes, flash frozen on dry ice, and stored at −80 °C. Quantitative analysis plasma samples were performed by Alturas Analytics (Moscow, ID, USA) via peptide extraction from acidified plasma with acetonitrile followed by LC-MS/MS analysis.

[3] = in vivo; details: male, Sprague Dawley, rat, sc
Method: as §1

[4] = test system: diet-induced obese (DIO) Sprague Dawley rats; type: in vivo
From the text: Male Sprague Dawley rats were fed 60% HF diet (formula: D12492; Research Diets, Inc; New Brunswick, NJ, USA; 5.21 kcal/g) for 16 weeks prior to the start of the study. Rats were then singly housed in BioDAQ cages (Research Diets, Inc.; New Brunswick, NJ, USA) and allowed to acclimate to their new environment for 10 days. Baseline measures of body weight, food intake and water intake were taken for one week to balance the groups and create feeding pairs. Each group (n = 6 animals/group) averaged 714.47 ± 81.60 g at baseline (Table 3).
Effects of ASK2131 were compared to a vehicle-treated group, OXT-treated group, as well as a pair-fed control group. Three days of baseline measures were taken before subcutaneous treatment administration began on day 4 of the study. Assessments were made to body weight, food intake and water intake. ASK2131 was administered at 50 nmol/kg throughout the entire study period. […] OXT-treated animals were started at 50 nmol/kg dose for two days, followed by 150 nmol/kg, then 300 nmol/kg, until ending at 600 nmol/kg for the remainder of the study.

[5] = male, Sprague Dawley, rat, plasma

Structure (SMILES): CCCCCCCCCCCCCCCC(=O)NCCOCCOCCOCCOCCOCCOCCOCCOCCC(=O)NCCCC[C@H](NC(=O)CNC(=O)[C@@H]1CCSCCC(=O)N[C@@H](Cc2ccc(O)cc2)C(=O)N[C@@H]([C@@H](C)CC)C(=O)N[C@@H](CCC(N)=O)C(=O)N[C@@H](CC(N)=O)C(=O)N1)C(=O)NCC(N)=O [ASK2131] (YIQN[hCys]GK([PEG8-Palmitoyl])G-NH2; linker N-5 via X1)
- V1aR activation [1]: did not display V1aR activation; also recorded: Neither molecule, ASK1476 or ASK2131, is active
- Cmax [2, 5]: 276 nM
- Tmax [2, 5]: 4 h
- clearance [2, 5]: 1.2 mL/min/kg
- Cmax (total maximal plasma concentration) ([2]; male lean Sprague Dawley rats, n = 5 per group, LC-MS/MS): 276 nM
- Tmax ([2]; male lean Sprague Dawley rats, n = 5 per group, plasma, LC-MS/MS): 4 h
- half-life [3]: 2.3 h
- decrease in food intake ([4]; 50 nmol/kg, first 8 days of treatment): 35%
- reduction in food intake ([4]; 50 nmol/kg, last 8 days of treatment): 25%
- average decline in food intake ([4]; 50 nmol/kg, whole 22-day treatment): 28%
- body weight, predicted mean difference (PMD) vs vehicle-treated group ([4]; after 2 days of drug administration, 50 nmol/kg sc, 95% CI −6.52 to −1.15%, p = 0.0011): −3.83%
- body weight, predicted mean difference (PMD) vs OXT-treated group ([4]; after 2 days of drug administration, both 50 nmol/kg sc, 95% CI −6.45 to −1.08%, p = 0.0014): −3.77%
- Posttreatment body weight ([4]; after 22 days once daily sc, ASK2131 50 nmol/kg, OXT titrated 50 to 600 nmol/kg, n = 6, mean ± SEM): 676 ± 42 g
- % change in body weight ([4]; after 22 days vs baseline, once daily sc, ASK2131 50 nmol/kg, OXT titrated 50 to 600 nmol/kg, n = 6, mean ± SEM): −6.6 ± 1.3% and −6.6 ± 1.3 ^c,d %
- body weight reduction compared to baseline ([4]; after 22 days, ASK2131 50 nmol/kg sc daily, mean ± standard error): 6.6 ± 1.3%
- body weight change, mean difference (MD) vs vehicle ([4]; after 22 days, ASK2131 50 nmol/kg/d, 95% CI −15.6 to −7.4, p < 0.0001): −11.5%
- cumulative food intake, mean difference (MD) vs vehicle ([4]; after 22 days, ASK2131 50 nmol/kg/d, 95% CI −1031 to −213.1, p < 0.0008): -621.9 kcal
- reduction of food intake compared to baseline ([4]; day 3, 50 nmol/kg/d sc): 39 ± 9%
- food intake, predicted mean difference (PMD) vs vehicle-treated group ([4]; day 3, 50 nmol/kg/d sc, 95% CI −80.47 to −11.51%, p = 0.0102): −45.99%
- tolerability ([4]; rat, in vivo): well tolerated
- water intake ([4]; rat, in vivo): without relevant changes of water intake
- body weight reduction (weight loss) vs vehicle at end of treatment ([4]; study completion, 22 days, ASK2131 50 nmol/kg, OXT titrated up to 600 nmol/kg): 11.5%
